Experimental data from patent US10174037B2, “Dihydropyrazolopyrimidinone compounds as PDE2 inhibitors” (Merck Sharp & Dohme Corp., priority 2015, dated 2019).

Each molecule was assayed against human PDE2A1 (Homo sapiens (Human), UniProt O00408) (assay: PDE selectivity IMAP FP assay, human PDE2A1). Details: Human PDE2; Lab B; read-out: Human PDE2 Ki (nM) Lab B.
Assay type: biochemical
Summary of the method: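 Compound titrations run against PDE2 in Tris HCl pH 7.2 buffer with MgCl2 and DTT for 60 min at room temperature, using 50 nM FAM-cAMP plus 1000 nM cGMP and enzyme giving 20% conversion.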

Sequence of human PDE2A1 (O00408 other isoform, or with tags, fused parts or gaps): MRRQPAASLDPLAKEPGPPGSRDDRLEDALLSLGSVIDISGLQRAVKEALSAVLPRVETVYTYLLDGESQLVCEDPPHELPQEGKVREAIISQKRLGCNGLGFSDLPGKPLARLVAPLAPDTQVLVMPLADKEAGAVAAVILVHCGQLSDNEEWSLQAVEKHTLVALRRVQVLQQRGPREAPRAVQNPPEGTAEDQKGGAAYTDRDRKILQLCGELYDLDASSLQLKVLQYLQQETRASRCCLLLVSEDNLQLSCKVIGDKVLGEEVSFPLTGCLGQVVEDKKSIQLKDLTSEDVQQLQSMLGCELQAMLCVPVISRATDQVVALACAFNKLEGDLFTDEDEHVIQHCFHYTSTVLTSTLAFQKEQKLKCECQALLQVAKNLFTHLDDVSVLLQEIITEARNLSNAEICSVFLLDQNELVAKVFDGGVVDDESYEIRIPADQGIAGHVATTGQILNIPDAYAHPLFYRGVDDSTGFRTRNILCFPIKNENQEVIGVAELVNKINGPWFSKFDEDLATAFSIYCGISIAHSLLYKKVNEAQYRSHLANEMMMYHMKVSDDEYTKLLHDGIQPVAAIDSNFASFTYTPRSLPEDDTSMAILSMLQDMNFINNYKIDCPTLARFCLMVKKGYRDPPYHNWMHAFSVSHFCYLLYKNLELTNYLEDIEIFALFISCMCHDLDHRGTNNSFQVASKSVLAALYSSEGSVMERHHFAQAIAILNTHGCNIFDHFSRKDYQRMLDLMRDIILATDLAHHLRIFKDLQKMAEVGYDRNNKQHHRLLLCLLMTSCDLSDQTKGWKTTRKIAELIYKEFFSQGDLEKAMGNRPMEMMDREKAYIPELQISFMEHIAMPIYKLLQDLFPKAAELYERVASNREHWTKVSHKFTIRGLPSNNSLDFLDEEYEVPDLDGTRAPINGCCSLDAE

Compound	Ki [nM]
CC(c1ccc(OC(F)(F)F)c(Cl)c1)n1nc(C(F)(F)F)c2c(=O)[nH]c(O)nc21 (single isomer, unassigned) [Example 322, (S)- or (R)-1-(1-(3-Chloro-4-(trifluoromethoxy)phenyl)ethyl)-6-hydroxy-3-(trifluoromethyl)-1H-pyrazolo[3,4-d]pyrimidin-4(5H)-one]	9.3
CC1(C(c2ccc(C(F)(F)F)c(F)c2)n2nc(CO)c3c(=O)[nH]c(O)nc32)CC1 (single isomer, unassigned) [Example 17]	55
CC(c1ccc(C(C)(F)F)cc1)n1nc(C(F)(F)F)c2c(=O)[nH]c(O)nc21 (single isomer, unassigned) [Example 317, (R)- or (S)-1-(1-(4-(1,1-Difluoroethyl)phenyl)ethyl)-6-hydroxy-3-(trifluoromethyl)-1H-pyrazolo[3,4-d]pyrimidin-4(5H)-one]	326
CNc1nc2c(c(CO)nn2C(c2ccc(C(C)(F)F)cc2)C(C)C)c(=O)[nH]1 (single isomer, unassigned) [Example 358]	5.3
CC(c1ccc(C(C)(F)F)c(F)c1)n1nc(CF)c2c(=O)[nH]c(N(C)C)nc21 (single isomer, unassigned) [Example 210, (R)- or (S)-1-(1-(4-(1,1-Difluoroethyl)-3-fluorophenyl)ethyl)-6-(dimethylamino)-3-(fluoromethyl)-1H-pyrazolo[3,4-d]pyrimidin-4(5H)-one]	3.3
CC(c1ccc(C(F)F)c(F)c1)n1nc(CF)c2c(=O)[nH]c(N(C)C)nc21 (single isomer, unassigned) [Example 197, (S)- or (R)-1-(1-(4-(Difiuoromethyl)-3-fluorophenyl)ethyl)-6-(dimethylamino)-3-(fluoromethyl)-1H-pyrazolo[3,4-d]pyrimidin-4(5H)-one]	18
CC(c1ccc(CC(F)(F)F)cc1)n1nc(CO)c2c(=O)[nH]c(N(C)C)nc21 (single isomer, unassigned) [Example 70, (R)- or (S)-6-(Dimethylamino)-3-(hydroxymethyl)-1-(1-(4-(2,2,2-trifluoroethyl)phenyl)ethyl)-1H-pvrazolo[3,4-d]pyrimidin-4(5H)-one]	4.1
CC(c1ccc(C(F)F)c(F)c1)n1nc(CO)c2c(=O)[nH]c(N(C)C)nc21 (single isomer, unassigned) [Example 104, (R)- or (S)-1-(1-(4-(Difluoromethyl)-3-fluorophenyl)ethyl)-6-(dimethylamino)-3-(hydroxymethyl)-1H-pyrazolo[3,4-d]pyrimidin-4(5H)-one]	40
CCC(c1ccc(OC(F)F)cc1F)n1nc(CF)c2c(=O)[nH]c(N(C)C)nc21 (single isomer, unassigned) [Example 342, (R)- or (S)-1-(1-(4-(Difluoromethoxy)-2-fluorophenyl)propyl)-6-(dimethylamino)-3-(fluoromethyl)-1H-pyrazolo[3,4-d]pyrimidin-4(5H)-one]	0.1
CC1(C(c2ccc(C(F)(F)F)c(F)c2)n2nc(CO)c3c(=O)[nH]c(O)nc32)CC1 (single isomer, unassigned) [Example 16]	702
CC1(C(c2ccc(C(F)(F)F)cc2)n2nc(CO)c3c(=O)[nH]c(O)nc32)CC1 (single isomer, unassigned) [Example 4]	342
CC(c1ccc(OC(F)F)c(Cl)c1)n1nc(C(F)(F)F)c2c(=O)[nH]c(O)nc21 (single isomer, unassigned) [Example 326, (S)- or (R)-1-(1-(3-Chloro-4-(difluoromethoxy)phenyl)ethyl)-6-hydroxy-3-(trifluoromethyl)-1H-pyrazolo[3,4-d]pyrimidin-4(5H)-one]	16
CC(c1ccc(C(F)(F)F)c(F)c1)n1nc(C(F)(F)F)c2c(=O)[nH]c(O)nc21 (single isomer, unassigned) [Example 314, (S)- or (R)-1-{1-[3-Fluoro-4-(trifluoromethyl)phenyl]ethyl}-6-hydroxy-3-(trifluoromethyl)-1,5-dihydro-4H-pyrazolo[3,4-d]pyrimidin-4-one]	106
CC(c1ccc(C(F)(F)F)c(F)c1)n1nc(C(F)(F)F)c2c(=O)[nH]c(O)nc21 (single isomer, unassigned) [Example 313, (R)- or (S)-1-{1-[3-Fluoro-4-(trifluoromethyl)phenyl]ethyl}-6-hydroxy-3-(trifluoromethyl)-1,5-dihydro-4H-pyrazolo[3,4-d]pyrimidin-4-one]	2.2
CC(c1ccc(OC(F)F)c(F)c1)n1nc(C(F)(F)F)c2c(=O)[nH]c(O)nc21 (single isomer, unassigned) [Example 323, (R)- or (S)-1-(1-(4-(Difluoromethoxy)-3-fluorophenyl)ethyl)-6-hydroxy-3-(trifluoromethyl)-1H-pyrazolo[3,4-d]pyrimidin-4(5H)-one]	304
CC(c1ccc(C(F)F)cc1)n1nc(CO)c2c(=O)[nH]c(N(C)C)nc21 (single isomer, unassigned) [Example 82, (R)- or (S)-1-(1-(4-(Difluoromethyl)phenyl)ethyl)-6-(dimethylarnino)-3-(hydroxymethyl)-1H-pyrazolo[3,4-d]pyrimidin-4(5H)-one]	35
CCC(c1ccc(C(C)(F)F)cc1)n1nc(CF)c2c(=O)[nH]c(N(C)C)nc21 (single isomer, unassigned) [Example 204, (R)- or (S)-1-(1-(4-(1,1-Difluoroethyl)phenyl)propyl)-6-(dimethylamino)-3-(fluoromethyl)-1H-pyrazolo[3,4-d]pyrimidin-4(5H)-one]	1.4
CNc1nc2c(c(CO)nn2C(c2ccc(C(C)(F)F)cc2)C(C)C)c(=O)[nH]1 (single isomer, unassigned) [Example 359]	0.33
CN(C)c1nc2c(c(CO)nn2C(c2ccc(C(C)(F)F)c(F)c2)C2CC2)c(=O)[nH]1 (single isomer, unassigned) [Example 350, (R)- or (S)-1-(Cyclopropyl(4-(1,1-difluoroethyl)-3-fluorophenyl)methyl)-6-(dimethylamino)-3-(hydroxymethyl)-1H-pyrazolo[3,4-d]pyrimidin-4(5H)-one]	0.14
C=CC(c1ccc(C(F)(F)F)cc1)n1nc(C(F)(F)F)c2c(=O)[nH]c(O)nc21 (centres unmarked) [Example 355, 6-Hydroxy-3-(trifluoromethyl)-1-(1-(4-(trifluoromethyl)phenyl)allyl)-1H-pyrazolo[3,4-d]pyrimidin-4(5H)-one]	284
CC(c1ccc(CC(F)F)cc1)n1nc(C(F)(F)F)c2c(=O)[nH]c(O)nc21 (single isomer, unassigned) [Example 319, (R)- or (S)-1-(1-(4-(2,2-Difluoroethyl)phenyl)ethyl)-6-hydroxy-3-(trifluoromethyl)-1H-pyrazolo[3,4-d]pyrimidin-4(5H)-one]	590
C[C@@H](c1ccc(C(F)(F)F)cc1)n1nc(CO)c2c(=O)[nH]c(N3CC(F)(F)C3)nc21 [Example 159, 6-(3,3-Difluoroazetidin-1-yl)-3-(hydroxymethyl)-1-{(1S)-1-[4-(trifluoromethyl)phenyl]ethyl}-1,5-dihydro-4H-pyrazolo[3,4-d]pyrimidin-4-one]	2.3
CC(c1ccc(C2CC2)cc1)n1nc(C(F)F)c2c(=O)[nH]c(O)nc21 (single isomer, unassigned) [Example 276, (S)- or (R)-1-(1-(4-Cyclopropylphenyl)ethyl)-3-(difluoromethyl)-6-hydroxy-1H-pyrazolo[3,4-d]pyrimidin-4(5H)-one]	3.6
